Each block holds one compound with its values, some of them ahead of it.
How the values were obtained:
[1] = molecular target: purified recombinant human PARP (Homo sapiens (Human), UniProt P09874); experiment: PARP enzyme assay (IC50); assay type: biochemical; conditions: approximate IC50 values
Method: A convenient method to determine IC50 of a PARP inhibitor compound is a PARP assay using purified recombinant human PARP from Trevigan (Gaithersburg, MD), as follows: The PARP enzyme assay is set up on ice in a volume of 100 microliters consisting of 100 mM Tris-HCl (pH 8.0), 1 mM MgCl2, 28 mM KCl, 28 mM NaCl, 0.1 mg/ml of DNase I activated herring sperm DNA (Sigma, Mo.), 3.0 micromolar [3H]nicotinamide adenine dinucleotide (470 mci/mmole), 7 micrograms/ml PARP enzyme, and various concentrations of the compounds to be tested. The reaction is initiated by incubating the mixture at 25° C. After 15 minutes of incubation, the reaction is terminated by adding 500 microliters of ice cold 20% (w/v) trichloroacetic acid. The precipitate formed is transferred onto a glass fiber filter (Packard Unifilter-GF/B) and washed three times with ethanol. After the filter is dried, the radioactivity is determined by scintillation counting.

[2] = test system: Murine melanoma B16 cells; experiment: Survival of mice bearing intracranial B16 melanoma, compound + temozolomide; assay type: in vivo; conditions: for MST: B16 melanoma in brain; for ILS vs TMZ: increase in lifespan
Method: The intracranial transplantation procedure was performed as described in Tentori L. et al., “Effects of single or split exposure of leukemic cells to temozolomide, combined with poly(ADP-ribose) polymerase inhibitors on cell growth, chromosomal aberrations and base excision repair components,” Cancer Chemother Pharmacol, 47, 361-9 (2001). Murine melanoma B16 cells (10^4) were injected intracranially (ic) into male B6D2F1 (C578L/6×DBA/2) mice. Histological evaluation of tumor growth in the brain was performed 1-5 days after tumor challenge, in order to determine the timing of treatment.
Compound 4i was dissolved in 70 mM PBS without potassium and administered po 1 h before temozolomide (TMZ). TMZ was dissolved in dimethyl-sulfoxide (40 mg/ml), diluted in saline (5 mg/ml) and administered ip at a dose of 100 mg/Kg for five days. Mice were treated with compound 4i by oral gavages once a day for five days, at doses of 10 or 40 mg/kg/day. Median survival times (MST) were determined and the percentage of increase in lifespan (ILS) was calculated as: {[MST (days) of treated mice/MST (days) of control mice]−1}×100. Efficacy of treatments was evaluated by comparing survival curves between treated and control groups.

DRG neurons = experiment: DRG neuron morphometry in cisplatin-induced neuropathy in rats; assay type: in vivo
Method: In this experiment, female Wistar Hannover rats were dosed with neuropathy inducing doses of cisplatin (2 mg/kg IP; twice a week for 4 weeks) with and without compound 4i (40 mg/kg PO daily). The rats were monitored for changes in sensory nerve conduction velocity (SNCV) in the caudal nerve at baseline (pre-cisplatin dosing) and after treatment. Additionally, dorsal root ganglion and sciatic nerve specimens with morphometric analysis on dorsal root ganglion neurons (somatic, nuclear and nucleolar size) were assessed histopathologically. Left L5 dorsal-root ganglia (DRG) of rats from each group were obtained from the sacrificed animals and processed according to previously reported protocols [Cavaletti et al.: […] et al]], resin embedded, and used for light and electron microscope observations and morphometry. On 1 μm thick semithin sections, morphometric determinations of the cross sectional area of the somata, nuclei and nucleoli of DRG neurons were performed using an image analysts software (Image J, NIH). The differences in nerve conduction velocity, and in morphometric data obtained in dorsal root ganglia neurons during the experiment were statistically evaluated using the analysis of variance (ANOVA) and the Tukey-Kramer post-test (significance level set at p<0.05).

[3] = Sensory nerve conduction velocity (SNCV) in cisplatin-induced neuropathy in rats; assay type: in vivo; conditions: for SNCV at the end of the experiment, mean: tail nerve; for tail nerve conduction velocity impairment due to chronic cisplatin treatment: co-administration of compound 4i 40 mg/kg PO daily
Method: In this experiment, female Wistar Hannover rats were dosed with neuropathy inducing doses of cisplatin (2 mg/kg IP; twice a week for 4 weeks) with and without compound 4i (40 mg/kg PO daily). The rats were monitored for changes in sensory nerve conduction velocity (SNCV) in the caudal nerve at baseline (pre-cisplatin dosing) and after treatment. Additionally, dorsal root ganglion and sciatic nerve specimens with morphometric analysis on dorsal root ganglion neurons (somatic, nuclear and nucleolar size) were assessed histopathologically. At the beginning and end of the treatment period, each animal underwent the determination of SNCV in the tail as previously described in Cavaletti et al., “Protective Effects of glutathione on cisplatin neurotoxicity in rats,” Int. J. Radiation Oncology, 29, 771-776 (1994) and […] et al., “Low-Dose Glutathione administration in the prevention of cisplatin-induced peripheral neuropathy in rats,” Neuro toxicology, 15, 701-704 (1994). The antidromic SNCV in the tail nerve was assessed by placing recording ring electrodes distally in the tail, while the stimulating ring electrodes were placed 5 cm and 10 cm proximally with respect to the recording point. The latencies of the potentials recorded at the 2 sites after nerve stimulation were determined (peak-to-peak) and nerve conduction velocity was calculated accordingly. The differences in nerve conduction velocity, and in morphometric data obtained in dorsal root ganglia neurons during the experiment were statistically evaluated using the analysis of variance (ANOVA) and the Tukey-Kramer post-test (significance level set at p<0.05).

B16 melanoma = experiment: Subcutaneous B16 melanoma growth in mice, compound + temozolomide; assay type: in vivo; conditions: Compound 4i 40 mg/kg po + TMZ 100 mg/kg ip once a day for five days; s.c. tumor; day 9 to day 23
Method: The efficacy of TMZ±Compound 4i treatment was also evaluated on melanoma growing subcutaneously (s.c.) in mice. For this purpose B16 cells (2.5×10^5) were inoculated s.c. in the flank of the animal. Tumors were measured with calipers and volume calculated according to the formula: [(width)^2×length]/2. Drug treatment started 6 days after challenge, when the volume of tumor nodules reached 100-150 mm^3. Compound 4i (40 mg/kg po) was administered at 20 min before temozolomide (100 mg/kg ip) once a day for five days. Melanoma growth was monitored by measuring tumor nodules every 3 days for 3 weeks.

[4] = Tukey's multiple comparison test

Sequence of purified recombinant human PARP (P09874 whole entry): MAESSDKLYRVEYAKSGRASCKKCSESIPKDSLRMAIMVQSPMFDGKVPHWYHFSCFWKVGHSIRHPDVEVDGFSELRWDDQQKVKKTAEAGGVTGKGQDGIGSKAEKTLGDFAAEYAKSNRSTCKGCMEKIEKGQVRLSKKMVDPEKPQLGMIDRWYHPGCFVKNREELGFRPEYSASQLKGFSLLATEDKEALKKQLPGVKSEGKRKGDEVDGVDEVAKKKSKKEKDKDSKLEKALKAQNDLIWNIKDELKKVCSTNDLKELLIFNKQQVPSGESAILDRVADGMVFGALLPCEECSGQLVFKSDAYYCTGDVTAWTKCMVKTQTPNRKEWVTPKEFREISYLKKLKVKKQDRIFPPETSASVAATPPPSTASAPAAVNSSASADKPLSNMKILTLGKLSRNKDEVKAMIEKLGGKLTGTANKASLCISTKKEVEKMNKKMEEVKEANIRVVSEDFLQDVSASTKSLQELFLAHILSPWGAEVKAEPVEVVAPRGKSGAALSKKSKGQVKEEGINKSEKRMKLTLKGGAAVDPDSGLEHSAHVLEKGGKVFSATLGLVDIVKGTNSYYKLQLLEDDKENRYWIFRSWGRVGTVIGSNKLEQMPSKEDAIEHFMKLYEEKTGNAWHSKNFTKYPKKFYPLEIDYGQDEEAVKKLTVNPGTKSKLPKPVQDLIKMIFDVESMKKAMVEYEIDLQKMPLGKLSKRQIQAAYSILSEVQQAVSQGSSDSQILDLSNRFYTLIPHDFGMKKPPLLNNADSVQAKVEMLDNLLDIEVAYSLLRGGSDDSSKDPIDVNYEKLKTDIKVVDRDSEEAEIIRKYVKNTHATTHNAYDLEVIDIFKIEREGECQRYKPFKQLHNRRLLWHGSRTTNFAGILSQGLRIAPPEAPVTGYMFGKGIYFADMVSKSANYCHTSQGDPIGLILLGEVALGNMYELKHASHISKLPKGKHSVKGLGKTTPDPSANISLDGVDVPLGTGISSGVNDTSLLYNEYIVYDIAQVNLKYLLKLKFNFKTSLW

Structure (SMILES): CCN(CCO)Cc1ccc2c(c1)-c1n[nH]c(=O)c3cccc(c13)O2 [Compound 4j, 10-{[Ethyl-(2-hydroxy-ethyl)-amino]-methyl}-2H-7-oxa-1,2-diaza-benzo[de]anthracen-3-one]
- IC50 [1]: 100 nM

Structure (SMILES): Cn1nnc2c(C(N)=O)ncn2c1=O [TMZ, temozolomide, reference compound]
- MST ([2]; TMZ alone 100 mg/kg ip x 5): 14 days

Structure (SMILES): O=c1[nH]nc2c3c(cccc13)Oc1ccc(CN3CCC4(CC3)OCCO4)cc1-2 [Compound 4n, 10-(1,4-Dioxa-8-aza-spiro[4.5]dec-8-ylmethyl)-2H-7-oxa-1,2-diaza-benzo[de]anthracen-3-one]
- IC50 [1]: 100 nM

Structure (SMILES): CC(C)N1CCN(Cc2ccc3c(c2)-c2n[nH]c(=O)c4cccc(c24)O3)CC1 [Compound 4a, 10-(4-Isopropyl-piperazin-1-ylmethyl)2H-7-oxa-1,2-diaza-benzo[de]anthracen-3-one]
- IC50 [1]: 30 nM

Structure (SMILES): CCN(CC)CCN(C)Cc1ccc2c(c1)-c1n[nH]c(=O)c3cccc(c13)O2 [Compound 4h, 10-{[(2-Diethylamino-ethyl)-methyl-amino]-methyl}-2H-7-oxa-1,2-diaza-benzo[de]anthracen-3-one]
- IC50 [1]: 100 nM

Structure (SMILES): O=C1CCN(Cc2ccc3c(c2)-c2n[nH]c(=O)c4cccc(c24)O3)CC1 [Compound 4s, 10-(4-Oxo-piperidin-1-ylmethyl)-2H-7-oxa-1,2-diaza-benzo[de]anthracen-3-one]
- IC50 [1]: 120 nM

Structure (SMILES): O=c1[nH]nc2c3c(cccc13)Oc1ccc(CN3CCC(O)C3)cc1-2 (stereo not shown) [Compound 4l, 10-(3-Hydroxy-pyrrolidin-1-ylmethyl)-2H-7-oxa-1,2-diaza-benzo[de]anthracen-3-one]
- IC50 [1]: 100 nM

Structure (SMILES): O=c1[nH]nc2c3c(cccc13)Oc1ccc(CN[C@H]3CC[C@H](O)CC3)cc1-2 [Compound 4r, 10-[(4-Hydroxy-cyclohexylamino)-methyl]-2H-7-oxa-1,2-diaza-benzo[de]anthracen-3-one]
- IC50 [1]: 30 nM

Structure (SMILES): COCCN1CCN(Cc2ccc3c(c2)-c2n[nH]c(=O)c4cccc(c24)O3)CC1 [Compound 4b, 10-[4-(2-Methoxy-ethyl)-piperazin-1-ylmethyl]-2H-7-oxa-1,2-diaza-benzo[de]anthracen-3-one]
- IC50 [1]: 20 nM

Structure (SMILES): O=c1[nH]nc2c3c(cccc13)Oc1ccc(CN3CCCC(O)C3)cc1-2 (stereo not shown) [Compound 4o, 10-(3-Hydroxy-piperidin-1-ylmethyl)-2H-7-oxa-1,2-diaza-benzo[de]anthracen-3-one]
- IC50 [1]: 50 nM

Structure (SMILES): O=c1[nH]nc2c3c(cccc13)Oc1ccc(CN3CCC(O)CC3)cc1-2 [Compound 4i]
- IC50 [1]: 40 nM
- growth of B16 melanoma vs TMZ alone (B16 melanoma): significantly reduced
- MST ([2]; Compound 4i 10 mg/kg po + TMZ 100 mg/kg ip x 5 days): 17 days
- ILS vs TMZ ([2]; Compound 4i 10 mg/kg po + TMZ x 5): 21%
- MST ([2]; Compound 4i 40 mg/kg po + TMZ 100 mg/kg ip x 5 days): 21 days
- ILS vs TMZ ([2]; Compound 4i 40 mg/kg po + TMZ x 5): 50%
- mean survival time vs TMZ as single agent ([2]; compound 4i + TMZ combination, mice bearing B16 melanoma): significantly higher
- Morphometry on DRG, Nu (nucleus), mean (DRG neurons; CDDP + 4i): 121.8 μm^2
- Morphometry on DRG, Nucl (nucleolus), mean (DRG neurons; CDDP + 4i): 8.069 μm^2
- Morphometry on DRG, Soma, mean (DRG neurons; CDDP + 4i): 822.1 μm^2
- Nucleolus Mean Diff., CDDP vs CDDP + 4i (DRG neurons; [4]): −0.4177
- Soma Mean Diff., CDDP vs CDDP + 4i (DRG neurons; [4]): −138.7
- effect on DRG neuron morphometry (DRG neurons; cisplatin-treated rats with compound 4i): significant effect only on the somatic size of DRG neurons
- SNCV at the end of the experiment, mean ([3]; CDDP 2 mg/kg IP twice a week for 4 weeks + 4i 40 mg/kg PO daily): 34.08 m/sec
- SNCV Mean Diff., CDDP vs CDDP + 4i [3, 4]: −5.460
- tail nerve conduction velocity impairment due to chronic cisplatin treatment [3]: attenuate the deficits in nerve conduction velocity
- tail nerve conduction velocity impairment due to chronic cisplatin treatment ([3]; listed as compound 4i): statistically significant reduction

Structure (SMILES): O=c1[nH]nc2c3c(cccc13)Oc1ccc(CN3CCN(c4ncccn4)CC3)cc1-2 [Compound 4c, 10-(4-Pyrimidin-2-yl-piperazin-1-ylmethyl)-2H-7-oxa-1,2-diaza-benzo[de]anthracen-3-one]
- IC50 [1]: 30 nM

Second part, led by results:

- IC50 [1]: 100 nM
Structure (SMILES): O=c1[nH]nc2c3c(cccc13)Oc1ccc(CN3CCC(CCO)CC3)cc1-2 [Compound 4m, 10-[4-(2-Hydroxy-ethyl)-piperidin-1-ylmethyl]-2H-7-oxa-1,2-diaza-benzo[de]anthracen-3-one]

- IC50 [1]: 300 nM
Structure (SMILES): CC(C)N(Cc1ccc2c(c1)-c1n[nH]c(=O)c3cccc(c13)O2)C(C)C [Compound 4k, 10-[(Diisopropylamino)-methyl]-2H-7-oxa-1,2-diaza-benzo[de]anthracen-3-one]

- IC50 [1]: 30 nM
Structure (SMILES): O=c1[nH]nc2c3c(cccc13)Oc1ccc(CN3CC(O)C3)cc1-2 [Compound 4p, 10-(3-Hydroxy-azetidin-1-ylmethyl)-2H-7-oxa-1,2-diaza-benzo[de]anthracen-3-one]

- IC50 [1]: 50 nM
Structure (SMILES): O=c1[nH]nc2c3c(cccc13)Oc1ccc(CNCCN3CCOCC3)cc1-2 [Compound 4q, 10-[(2-Morpholin-4-yl-ethylamino)-methyl]-2H-7-oxa-1,2-diaza-benzo[de]anthracen-3-one]

- IC50 [1]: 20 nM
Structure (SMILES): O=C1CN(Cc2ccc3c(c2)-c2n[nH]c(=O)c4cccc(c24)O3)CCN1 [Compound 4d, 10-(3-Oxo-piperazin-1-ylmethyl)-2H-7-oxa-1,2-diaza-benzo[de]anthracen-3-one]

- Morphometry on DRG, Nu (nucleus), mean (DRG neurons; CDDP alone): 114.3 μm^2
- Morphometry on DRG, Nucl (nucleolus), mean (DRG neurons; CDDP alone): 7.651 μm^2
- Morphometry on DRG, Soma, mean (DRG neurons; CDDP alone): 683.4 μm^2
Structure (SMILES): [NH2][Pt]([NH2])([Cl])[Cl] [CDDP, Cisplatin, reference compound]
- SNCV at the end of the experiment, mean ([3]; CDDP alone 2 mg/kg IP twice a week for 4 weeks): 28.62 m/sec

Source: patent publication US8470825B2, “Diazabenzo[de] anthracen-3-one compounds and methods for inhibiting PARP” (Eisai Inc., priority 2005, dated 2013)
